Where two headings read alike, the source gives them in different places. Peptide text beside a SMILES is read from it.

Assay [1] deals with T1, α-hemolysin (α-HL) nanopore (Staphylococcus aureus, UniProt P09616).
Assay [2] concerns the target T1, α-hemolysin (α-HL) nanopore. Kind of assay: biochemical. It is filed as binding. Particulars: for kon: extrapolated to ΔV→0 by fit kon(ΔV)=kon(0)exp(aΔV).

T1 sequence (P09616 27-319 limits assumed): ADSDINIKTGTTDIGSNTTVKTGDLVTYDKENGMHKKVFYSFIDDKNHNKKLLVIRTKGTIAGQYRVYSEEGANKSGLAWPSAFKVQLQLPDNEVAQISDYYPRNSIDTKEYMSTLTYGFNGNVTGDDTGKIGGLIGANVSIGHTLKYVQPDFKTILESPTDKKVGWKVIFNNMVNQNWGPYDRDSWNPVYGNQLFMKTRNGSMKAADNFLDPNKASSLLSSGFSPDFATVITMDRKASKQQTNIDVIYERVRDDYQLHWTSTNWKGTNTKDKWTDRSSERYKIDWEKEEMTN

As usually defined, the kon is the rate constant with which the complex forms. Take `CC(=O)N[C@@H](CCCNC(=N)N)C(=O)N[C@@H](CCCNC(=N)N)C(=O)N[C@@H](CCCNC(=N)N)C(=O)N[C@@H](CCCNC(=N)N)C(=O)N[C@@H](CCCNC(=N)N)C(=O)N[C@@H](CCCNC(=N)N)C(=O)N[C@@H](CCCNC(=N)N)C(=O)N[C@@H](CCCNC(=N)N)C(=O)N[C@@H](CCCNC(=N)N)C(=O)N[C@@H](CCCNC(=N)N)C(=O)N[C@@H](CCCNC(=N)N)C(=O)N[C@@H](CCCNC(=N)N)C(=O)N[C@@H](CO)C(=O)N[C@@H](CO)C(=O)N[C@@H](CO)C(=O)N[C@@H](CO)C(=O)N[C@@H](CO)C(=O)N[C@@H](CO)C(=O)N[C@@H](CCC(=O)O)C(=O)N[C@@H](CCC(=O)O)C(=O)N[C@@H](CCC(=O)O)C(=O)N[C@@H](CCC(=O)O)C(=O)N[C@@H](CCC(=O)O)C(=O)N[C@@H](CCC(=O)O)C(=O)N[C@@H](CCC(=O)O)C(=O)N[C@@H](CCC(=O)O)C(=O)N[C@@H](CCC(=O)O)C(=O)N[C@@H](CCC(=O)O)C(=O)N[C@@H](CCC(=O)O)C(=O)N[C@@H](CCC(=O)O)C(N)=O` [Pe6, Ac–(R)12–(S)6–(E)12–NH2] (Ac-RRRRRRRRRRRRSSSSSSEEEEEEEEEEEE-NH2): the “relative blockade extent ΔIblock,1/Iopen (residual current I1)” value in assay [1] (deeper blockade sub-state I1, Fig. 1: 20 µM trans-added, ΔV = +100 mV, 2 M KCl, 10 mM HEPES, pH 7, ~23 °C, kind of spread not stated) stood at 0.91 ± 0.003. For the same compound, the “relative blockade extent ΔIblock,2/Iopen (residual current I2)” value in assay [1] (shallower blockade sub-state I2, Fig. 1: 20 µM trans-added, ΔV = +100 mV, 2 M KCl, 10 mM HEPES, pH 7, ~23 °C, kind of spread not stated) is reported as 0.83 ± 0.002. Moreover, the “dissociation rate, cis vs trans entry with preserved axial orientation, in words” value in assay [2] (at +ΔV (Figure 7a,d) and at −ΔV (Figure 7b,c), 30 μM) was “within the same order of magnitude”. The “dissociation, comparison of polarity in words” value in assay [2] (cis-added, +ΔV vs −ΔV (Figure 7c,d), 30 μM) is reported as “dissociates faster at +ΔVs (Figure 7d) than −ΔVs”. Moreover, in assay [2] (high voltages (|ΔV| > 100 mV), 30 μM), the “association rates trans vs cis side, in words” value is reported as “the association rates from the trans side are, in general, larger than peptide association from the cis side”. The “association rate kon, ranking by addition side and voltage polarity” value in assay [2] (high voltages (|ΔV| > 100 mV), 30 μM peptide, cis or trans addition) was “koncis;−ΔV<koncis;+ΔV<kontrans;+ΔV<kontrans;−ΔV”. Further, the kon is 63 ± 35.1 M⁻¹ s⁻¹ in assay [2] (pH 7, read-out: near equilibrium association rate constant kon(0), cis-added, +ΔV, 30 μM peptide, 2 M KCl, 10 mM HEPES, pH 7, ~23 °C); 26.1 ± 8.9 M⁻¹ s⁻¹ in assay [2] (pH 7, read-out: near equilibrium association rate constant kon(0), cis-added, −ΔV, 30 μM peptide, 2 M KCl, 10 mM HEPES, pH 7, ~23 °C); 83500 M⁻¹ s⁻¹ in assay [2] (pH 7, read-out: near equilibrium association rate constant kon(0), trans-added, +ΔV, 30 μM peptide, 2 M KCl, 10 mM HEPES, pH 7, ~23 °C); 1200 M⁻¹ s⁻¹ in assay [2] (pH 7, read-out: near equilibrium association rate constant kon(0), trans-added, −ΔV, 30 μM peptide, 2 M KCl, 10 mM HEPES, pH 7, ~23 °C). Moreover, the “dissociation rate constant koff, comparison of polarity in words” value in assay [2] (trans-added, +ΔV vs −ΔV (Figure 7a,b), 30 μM) was “larger at +ΔVs than at −ΔVs”. In addition, the “association rate constant kon, comparison in words” value in assay [2] (trans-added, Pe6 vs Pe4, voltage-dependent (Figure 4a,c), 2 M KCl, 10 mM HEPES, pH 7, ~23 °C) is reported as “almost one order of magnitude larger than that of the isoleucine-containing peptide (Pe4)”. Besides, the “trapping time inside α-HL, comparison in words” value in assay [2] (trans-added, as the positive voltage increases (+80, +90, +100 mV), Pe6 vs Pe4, 2 M KCl, pH 7) is reported as “being trapped longer than Pe4 peptide inside the α-HL, as the voltage increases”. For the same compound, the “association rate, comparison of polarity in words” value in assay [2] (trans-added, relatively low transmembrane potential values (Figure 6a,b insets), 30 μM) is “associate faster to the nanopore at +ΔVs (Figure 6a, inset) than −ΔV s”. Also, in assay [2] (ΔV→0, cis or trans addition, 30 μM peptide), the “near equilibrium kon(0), ranking by addition side and voltage polarity” value is given as “koncis;−ΔV(0)<koncis;+ΔV(0)<kontrans;−ΔV(0)<kontrans;+ΔV(0)”.

As for Ac–(R)12–(I)6–(E)12–NH2 [Pe4], in assay [1], the “relative blockade extent ΔIblock,1/Iopen, comparison in words” value was “slightly higher extent of relative blockade”. For the same compound, in assay [1] (pH 7), the “relative blockade extent ΔIblock,1/Iopen (residual current I1)” value is given as 0.93 ± 5.1 × 10^−4 and the “relative blockade extent ΔIblock,2/Iopen (residual current I2)” value is recorded as 0.83 ± 0.004. In addition, the “dissociation rate constant koff, comparison in words” value in assay [2] (pH 7) is given as “slightly faster dissociation step”.

Values taken from PMC6403800 (Polymers, 2018).
